{
  "source": "patent US6881729B2",
  "about": "“Bile compound and method of controlling behavior of lampreys therewith” (Board of Trustees of Michigan State University, priority 2001, dated 2005)",
  "key": {"[1]": {"system": "antibody against 3kPZS (polyclonal antiserum L286)", "experiment": "ELISA cross-reactivity of the antiserum", "format": "binding, rabbit", "protocol": "Plates were coated with polyclonal goat anti-rabbit IgG (Sigma; product code R2004) by adding 120 μL of antibody diluted in 0.05 M potassium phosphate buffer, pH 7.4 to each well and incubating overnight at 4° C. The plates were blocked by addition of 100 μL of 3% BSA in 0.1 M potassium phosphate buffered saline and storage at 4° C. for at least 12 h.\nNon-specific binding (NSB) and maximum binding (B0) were measured in separate wells. Water washings, extracts, or HPLC fractions were diluted 20 times in assay buffer and 100 μL added to wells in duplicate; 50 μL of the diluted enzyme label (1:2000) was added to all wells and 50 μL of primary antibody (1:500,000) was added to all but NSB wells. Plates were incubated for 2 h at room temperature in a humid chamber. Then, after rinsing three times with wash buffer, 200 μL Ellmans reagent (4.3 mg DTNB, and 4 mg acetyl thiocholine in 20 mL 0.02 M potassium phosphate buffer) was added to each well. The plates were sealed and incubated overnight at room temperature in a humid chamber.\nTo test the cross-reactivity of the antibody to structurally related compounds, serial dilutions of ACA, PZ, PZS, CA, 3kACA, and 3kPZ were assayed alongside the 3kPZS standard."}, "ovulated females": {"system": "ovulated females", "experiment": "two-choice maze behavioral test (preference and searching)", "format": "in vivo, sea lamprey, Petromyzon marinus", "from_the_text": "Behavioral tests confirmed that the odor of spermiating males influences the distribution and locomotor activities of ripe females in a two-choice maize as follows. Animals were classified as spermiating males and ovulated females if milt and eggs, respectively, could be expressed by manual pressure, or otherwise as non-spermiating males and pre-ovulatory females, and used as either test subjects or odor donors in a flow through (0.07 m/s) maze (L 4.6 m×W 1.2 m) with plywood bottom, sides, and a partition in the middle which extended 2.4 m from the upstream end, and with plastic meshes blocking fish movement at both the upstream and downstream ends. Odor donors were held above the upstream mesh. Between 0700 and 1700 h, a single test subject was acclimated for 10 min in the maze, and its behavior video recorded for 20 min. Then, 5 lampreys (all of one sex and maturity) were introduced into the mesh chamber on a randomly chosen side, and behavior of test subjects recorded for another 20 min. When washings were used, a spermiating male was held in 10 L of water for four hours and the water introduced into the odor chamber at 75 mL/min. Naïve observers scored videotapes for the total time spent in each side before (Be and Bc) and after (Ae and Ac) odorant introduction. The scores were used to calculate an index of preference: I=(Ae/(Ae+Be))−(Ac/(Ac+Bc)). A similar index was computed for searching behaviors which involved pacing back and forth across the upstream barrier, increased swimming speed, and rapid beating of the tail.\nWhen tested in a two-choice maze, ovulated females (but not males or pre-ovulatory females) spent more time in the compartment scented with washings from spermiating males (Table 1). There was no preference of ovulated females for washings of pre-spermiating males or females.\nFrom this we estimated that in the two-choice maze experiments with live males, the pheromone reached a concentration between 0.1 and 0.2 ηM. Therefore, the converted PS was tested in the two-choice maze at a final concentration of 0.17 ηM."}, "[2]": {"system": "olfactory organs of adult females", "experiment": "electro-olfactography (EOG)", "format": "in vivo, sea lamprey", "from_the_text": "The response magnitude is expressed as the percentage of responses to 10^−5 M L-arginine, the standard odorant. Vertical bars, one standard deviation."}, "[3]": {"experiment": "diethyl ether extraction from buffers of different pH", "format": "physicochemical", "conditions": "pH 4", "protocol": "A trial was carried out in which a mixture of synthetic 3kPZS and 3kACA was dissolved in buffers of different pH and then extracted with diethyl ether. […] Based on this observation, an extract from 1 L of water that had been conditioned by a spermiating male was redissolved in 100 μL methanol and 900 μL of 0.05 M sodium acetate buffer, pH 4.0. This was extracted four times with 3 mL diethyl ether. The residue was then separated by HPLC as described above and the fractions assayed with the ELISA. Some of the extract which had not been treated with diethyl ether was treated in the same way. After these separations had been performed, standard synthetic 3kACA, 3kPZS and 3kPZ (200 μg each) were run on the column under identical conditions."}, "[4]": {"experiment": "long-term storage of natural compound in ethanol", "format": "physicochemical", "conditions": "1 mg/mL in ethanol at −20° C. for over one year", "from_the_text": "In Example 1, only a small supply of synthetic 3kPZS had been produced by enzymatic oxidation of the 3α-hydroxyl group of PZS. This restricted the number of comparisons that could be made between the natural and synthetic 3kPZS. This example completes these studies. This example confirms that both synthetic and natural 3kPZS have the same chromatographic properties and behave in the same way when treated with 3α-HSD and sulfatase. […] The reason for this has not been fully established. However, the natural compound that was used in this example had been stored at 1 mg/mL in ethanol at −20° C. for over one year, whereas the synthetic compound had been made up freshly. The possibility is that the sulfate group is unstable in long-term storage."}, "[5]": {"conditions": "ovulated females, final concentration of 0.17 ηM"}, "[6]": {"conditions": "ovulated females, flow-through maze, washings introduced at 75 mL/min, PP at final concentration of 0.17 ηM"}, "[7]": {"conditions": "ovulated females, searching behavior"}, "[8]": {"conditions": "weight for weight basis, compared with 3kPZS"}},
  "data": [
    {"smiles": "C[C@H](CCCOS(=O)(=O)O)[C@H]1CC[C@H]2[C@@H]3[C@H](O)C[C@H]4C[C@H](O)CC[C@]4(C)[C@H]3C[C@H](O)[C@]12C", "note": "[PZS, 3α,7α,12α,24-tetrahydroxy-5α-cholan-24-sulfate]", "values": [
      {"measurement": "cross-reaction with the antiserum", "setting": "[1]; relative to 3kPZS standard", "result": 1.6, "unit": "%"}
    ]},
    {"smiles": "CC(CCCOS(=O)(=O)O)C1CCC2C3C(O)CC4CC(=O)CCC4(C)C3CC(O)C12C", "note": "(stereo not drawn) [3kPZS, 7α,12α,24-trihydroxy-5α-cholan-3-one-24-sulfate]", "values": [
      {"measurement": "level at which it attracts ovulated females", "setting": "ovulated females; in words", "result": "sub-nanomolar"},
      {"measurement": "searching behavior in the scented side", "setting": "ovulated females; [5]", "result": "increased searching behavior"},
      {"measurement": "time spent in the scented side", "setting": "ovulated females; [5]", "result": "spent a longer time"},
      {"measurement": "No. animals that spent more time on side that was: Scented", "setting": "ovulated females; [6]", "result": 8},
      {"measurement": "No. animals that spent more time on side that was: Unscented", "setting": "ovulated females; [6]", "result": 0},
      {"measurement": "No. animals that spent more time searching on side that was: Scented", "setting": "ovulated females; [7]", "result": 6},
      {"measurement": "No. animals that spent more time searching on side that was: Unscented", "setting": "ovulated females; [7]", "result": 0},
      {"measurement": "olfactory stimulation by EOG", "setting": "[2]; adult females", "result": "highly stimulatory"},
      {"measurement": "detection threshold", "setting": "[2]; worked out from release rate and EOG detection of male washings after dilution of 10^6 times", "result": "about 10^−12 molar"},
      {"measurement": "extraction into the diethyl ether phase", "setting": "[3]", "result": "not"},
      {"measurement": "stability in storage", "setting": "[4]", "result": "appeared to have broken down to 3kPZ"}
    ]},
    {"smiles": "C[C@H](CCCO)[C@H]1CC[C@H]2[C@@H]3[C@H](O)C[C@H]4CC(=O)CC[C@]4(C)[C@H]3C[C@H](O)[C@]12C", "note": "[3kPZ, 7α,12α,24-trihydroxy-5α-cholan-3-one]", "values": [
      {"measurement": "cross-reaction with the antiserum", "setting": "[1]; relative to 3kPZS standard", "result": 100, "unit": "%"},
      {"measurement": "cross-reaction with the antiserum", "setting": "[1]; [8]", "result": "equally well"}
    ]},
    {"smiles": "C[C@H](CCC(=O)O)[C@H]1CC[C@H]2[C@@H]3[C@H](O)C[C@H]4CC(=O)CC[C@]4(C)[C@H]3C[C@H](O)[C@]12C", "note": "[3kACA, 7α,12α-dihydroxy-5α-cholan-3-one-24-oic acid]", "values": [
      {"measurement": "cross-reaction with the antiserum", "setting": "[1]; relative to 3kPZS standard", "result": 100, "unit": "%"},
      {"measurement": "cross-reaction with the antiserum", "setting": "[1]; [8]", "result": "equally well"},
      {"measurement": "extraction into the diethyl ether phase", "setting": "[3]", "result": "could be extracted into the diethyl ether phase"}
    ]}
  ]
}
